This note sets out measurements from patent US12697322B2, “Methods of treating cancer using androgen receptor antagonists” (Garvan Institute of Medical Research, priority 2019, dated 2026).

“Also recorded” adds a separate entry of the source.

Data set [1] deals with HMLER-CD44Hi and HCC38 CD44Hi cells. The experiment in a line: Tumoursphere formation assay. The class given is cell-based, human. The note with it: CD44^Hi cells, counted at Day 14. On the procedure:
Single cell suspensions were plated in ultra-low attachment 96-well plates (Corning #CLS3474, New York, USA). HMLE-CD44^Hi cells were plated at a density of 50 cells/well in 100 μl of BPA-free MEGM media (Lonza # CC-3150, Basal, Switzerland). HCC38-CD44^Hi cells were plated at a density of 100 cells/well in serum-free RPMI with 1% penicillin/streptomycin, 20 ng/ml EGF, 20 ng/ml FGFb, 4 μg/mL heparin, 1×B27 and 1% methyl cellulose (Sigma). Media was replenished every five days by adding 50 μL of the appropriate tumoursphere media to each well. Tumourspheres were counted at Day 14. Results are presented as tumoursphere formation efficiency (number of spheres per well divided by the number of cells seeded per well). At Day 14, mammospheres were collected using a 40 μm cell strainer, washed with PBS and dissociated using trypsin-EDTA solution, and stained with anti-CD44PECy7 and anti-CD104PE as per standard FACS staining protocol.

Data set [2] deals with CD44^Hi cells isolated from HMLER and HCC38 cell lines. The data set is described as follows: Cell proliferation assay (CyQuant). The note with it: for CD44^Hi proliferation: CD44^Hi cells from HMLER and HCC38. Format: cell-based, human. Here is the method: HMLER, HCC38 and MDA-MB-231 cells were plated in triplicate in 96-well plates at the densities outlined in Table 3. After 24 hours, cells were treated with various chemotherapeutic agents at the following doses: Doxorubicin (0 nM, 25 nM, 50 nM, 75 nM, 100 nM, 200 nM), Cisplatin (0 μg/ml, 0.1 μg/ml, 0.5 μg/ml, 1 μg/ml, 2 μg/ml, 5 μg/ml) or Docetaxel (0 nM, 1 nM, 5 nM, 10 nM, 25 nM, 50 nM); Androgen receptor agonists: Enobosarm (0 nM, 25 nM, 50 nM, 100 nM, 200 nM, 400 nM) or DHT (0 nM, 1 nM, 5 nM, 10 nM, 20 nM, 40 nM); or AR antagonist: Seviteronel (0 nM, 0.5 nM, 2 nM, 10 nM, 20 nM, 50 nM). Assays were harvested daily for five days by removing culture media and storing at −80′C. Cell proliferation was determined using CyQuant Cell Proliferation assay kit according to manufacturer's protocol (ThermoFisher Scientific) and fluorescence was measured at ~480 nm excitation and ~520 nm emission using a microplate reader.

Data set [3] relates to MDA-MB-231 EGFP-Luciferase cells. The data set is described as follows: MDA-MB-231 xenograft, Seviteronel and Docetaxel (Example 5, FIG. 11). Format: in vivo, mice. Particulars: Seviteronel 100 mg/kg daily oral gavage, DTX 40 mg/kg i.p., 3 doses. On the procedure:
Forty-eight mice were enrolled in the experiment and randomized into 4 treatment arms: Vehicle (Veh), Seviteronel (Sev), Docetaxel (DTX) or combination therapy (Sev+Dtx). Animals were 6-8 weeks of age at the time of injection. MDA-MB-231 EGFP-Luciferase cells were cultured in DMEM 10% FBS 1% P/S. On the surgery date, 1×10^6 cells resuspended in 20% Matrigel/DMEM were injected unilaterally into the mammary fat pad. Tumour growth was monitored twice per week to establish growth kinetics. Five weeks post-injection, when tumour size ranged between 50-100 mm^3, animals were randomized to receive daily oral gavage with either vehicle (1% Carboxymethylcellulose, 0.1% Tween-80 and 5% DMSO) or Seviteronel (100 mg/kg). Animals were dosed from Monday to Saturday, leaving 1 day recovery per week. After one week, animals were again randomized within the Vehicle or Seviteronel groups to Control or Chemotherapy (DTX). […] Metastatic burden and tumour size was determined using the IVIS-spectrum imaging system. […] The presence of metastatic cells in each organ was additionally determined by FACS analysis (fluorescence activate cell sorting) using a panel of antibodies previously established in the lab (CD298-PE, CD44-PEcy7 and CD104EF660). Results were analyzed and graphed using Flowjo3 and prism 8. […] Metastatic incidence was analyzed applying two-way ANOVA uncorrected Fisher's LSD test.

Data set [4] has as its system MDA_MB-231-EGFP-Luc cells. The data set is described as follows: MDA-MB-231-EGFP-Luc orthotopic xenograft, Docetaxel and Seviteronel (Example 12, FIG. 12). The class given is in vivo, NSG female mice. On the procedure: 1×10^6 MDA_MB-231-EGFP-Luc cells were injected orthotopically into the mammary fat pad of NSG female mice. 14 animals were enrolled per treatment arm to reach 80% statistical power. Tumour size was monitored by caliper measurement twice per week. At the time tumour size reached 50-150 mm^3 animals were randomized into treatment arms: Vehicle (Veh), Seviteronel (Sev), Docetaxel, Docetaxel+Seviteronel. Seviteronel (100 mg/kg) was administrated via oral gavage daily (6 days on+1 day off) for cycles of 4. Seviteronel was resuspended into a 5% DMSO, 0.1% Tween 80, Hydro-methylcellulose solution at a 5 mg/ml concentration. […] Growth kinetics were monitored through the course of treatment and plotted using graph-pad prism (V9). […] At treatment endpoint, animals were injected with luciferin (10 μl/gr of 15 mg/ml stock) and metastatic burden analyzed using an IVIS spectrum imager 10 min post injection. […]
1×10^6 MDA_MB-231-EGFP-Luc cells were injected orthotopically into the mammary fat pad of NSG female mice. […] Tumour size was monitored by caliper measurement twice per week. […] Growth kinetics were monitored through the course of treatment by caliper measurement. […] Metastasis development was monitored until animals reached ethical end-point by weekly IVIS imaging. […]

Data set [5] deals with HMLER and HCC38 CD44^Lo cells. The experiment in a line: Flow cytometry of chemotherapy-induced CD44^Lo to CD44^Hi plasticity. Particulars: for induction of CD44^Lo-to-CD44^Hi transition by chemotherapy: one dose of chemotherapy for 72 hours; for blocking of chemotherapy-induced CD44^Lo-to-CD44^Hi transitions: with chemotherapy simultaneously for 72 hours, Seviteronel 10 μM. Format: cell-based, human. From the text:
Cells were stained and fixed as with DHT treatment.
Using purified populations of CD44^Lo cells (with no CD44^Hi fraction) the effects of chemotherapy on cellular plasticity was investigated using flow cytometry.
A general note: A flow cytometer gives signals particle by particle.

Data set [6] concerns HMLER-CD44Hi and HCC38 CD44Hi cells. The experiment in a line: Tumoursphere formation assay. Format: cell-based, human.
Data set [7] deals with AR full length (100 kDa). The experiment in a line: AR siRNA knockdown, western blot. Format: cell-based, human. The note with it: HCC38 CD44^Hi cells, 20 nM siRNA, 72 h post transfection. Here is the method: Protein was extracted from cell lysates using RIPA lysis buffer (sc-24948) or specific lysis buffer for phospho-proteins detection (20 mM Tris-HC1 pH 7.6, 137 mM NaCl, 1% NP40, 0.5% Na-deoxycholate, 10 mM NaF, 20 mM β-glycerophosphate, 1 mM Na-orthovanadate and 1:200 complete protease inhibitors). 25-30 μg of proteins were run in a 4-12% Bis-tris gel (Invitrogen). Proteins were transferred to a PVDF membrane (BioRad). After blocking with 5% BSA (w/v) and 0.05% (v/v) Tween-20 in PBS, the membranes were incubated overnight with the indicated antibodies, washed with PBS 0.05% (v/v) Tween-20 and incubated with the corresponding horseradish peroxidase-conjugated secondary antibodies (Cell Signaling; Dil 1/5000, Table 3) for 30 min. Blots were developed using Western Lightning Plus ECL (PerkinElmer) and FusionFx7 Digital Imager, Band intensities were quantified using Fiji (Schindelin et al., 2012) and results were represented relative to controls.
siRNAs targeting exon 1 and 7 of AR full length were designed in-house (SEQ ID NOs: 6 and 7). HCC38 CD44^Hi cells (10^5/well) were seeded in M6 plate wells 24 hours prior to siRNA transfection. 20 nM of siRNA CT, siRNA AR Ex1 or AR Ex7 were delivered using lipofectamine 3000 (Thermofisher) as per manufacturer instructions.
On the technique in general: A western blot detects proteins with antibodies after separation by electrophoresis.

In the case of `C[C@]12CC[C@H](O)CC1=CC[C@@H]1[C@@H]2CC[C@]2(C)C(c3cccnc3)=CC[C@@H]12` [Abiraterone, (3p)-17-(pyridin-3-yl) androsta-5, 16-dien-3-ol], the “tumoursphere formation (tumoursphere-forming efficiency)” value in data set [1] is “decrease”. In data set [2], the “CD44^Hi proliferation” value is “decreased CD44Hi proliferation; also recorded: decrease CD44^Hi proliferation”.

As for `CC(=O)O[C@@]12CO[C@@H]1C[C@H](O)[C@@]1(C)C(=O)[C@H](O)C3=C(C)[C@@H](OC(=O)[C@H](O)[C@@H](NC(=O)OC(C)(C)C)c4ccccc4)C[C@@](O)([C@@H](OC(=O)c4ccccc4)[C@H]21)C3(C)C` [Docetaxel], the tumour growth entry in data set [3] is “significantly reduces tumour growth compared to Seviteronel alone”. For the same compound, the “animals clear of metastasis (metastasis free survival)” value in data set [4] (10 weeks following commencement of second round of treatment (Day 77), IVIS) worked out at 0%. Further, the “induction of CD44^Lo-to-CD44^Hi transition by chemotherapy” value in data set [5] is “induce CD44^Lo cells to transition to the CD44^Hi state”.

With `COc1cccc2c1C(=O)c1c(O)c3c(c(O)c1C2=O)C[C@@](O)(C(=O)CO)C[C@@H]3O[C@H]1C[C@H](N)[C@H](O)[C@H](C)O1` [Doxorubicin], the “induction of CD44^Lo-to-CD44^Hi transition by chemotherapy” value in data set [5] was “induce CD44^Lo cells to transition to the CD44^Hi state”.

Regarding `CNC(=O)c1ccc(N2C(=S)N(c3ccc(C#N)c(C(F)(F)F)c3)C(=O)C2(C)C)cc1F` [Enzalutamide, 4-{3-[4-cyano-3-(trifluoromethyl)phenyl]-5,5-dimethyl-4-oxo-2-sulfanylideneimidazolidin-1-yl}-2-fluoro-iV-methylbenzamide], the “blocking of chemotherapy-induced CD44^Lo-to-CD44^Hi transitions” value in data set [5] is “not as effective as Seviteronel”. In addition, in data set [2], the “CD44^Hi proliferation” value is recorded as “decreased CD44Hi proliferation; also recorded: decrease CD44^Hi proliferation”. Moreover, the “treatment required to equal the effect of Seviteronel” value in data set [2] (CD44^Hi proliferation and tumoursphere formation) was “daily treatment of Enzalutamide was required to equal one dose of Seviteronel”.

Regarding `CC(C)[C@](O)(c1ccc2cc(OC(F)F)c(OC(F)F)cc2c1)c1c[nH]nn1` [Seviteronel, (1S)-1-[6,7-bis(difluoromethoxy)naphthalen-2-yl]-2-methyl-1-(2H-triazol-4-yl)propan-1-ol], in data set [3], the tumour growth result is “significantly reduces tumour growth kinetics compared to control”. Also, the “tumour growth compared with Veh (FIG. 12B)” value in data set [4] (Seviteronel 150 mg/kg/day 1st week then 100 mg/kg/day for 3 weeks, Dtx 20 mg/kg i.p. x3) is on record as “significantly reduces tumour growth compared with Veh treatmet arm”. In data set [6], the size of tumorspheres entry is given as “reduces the size of tumorspheres”. In addition, the “blocking of chemotherapy-induced CD44^Lo-to-CD44^Hi transitions” value in data set [5] is given as “blocks chemotherapy-induced CD44^Lo-to-CD44^Hi transitions; also recorded: inhibits chemotherapy-induced CD44Lo-to-CD44-Hi plasticity; also recorded: can be blocked”. For the same compound, in data set [1], the “tumoursphere formation (tumoursphere-forming efficiency)” value is given as “decrease; also recorded: dose-dependently inhibits tumoursphere-forming ability”. Also, in data set [2], the “CD44^Hi proliferation” value is given as “decreased CD44Hi proliferation; also recorded: decrease CD44^Hi proliferation; also recorded: inhibits the growth of CD44^Hi cells”.

On to “AR Ex7: in-house siRNA targeting AR exon 7, SEQ ID NO: 7 (GGAACUCGAUCGUAUCAUUUU; listed as RNA, chemistry not given here)”, for which the “expression of AR full length” value in data set [7] is listed as “strong reduction”.

As for “siRNA AR Ex1: in-house siRNA against AR full length, SEQ ID NO: 6 (GCUUCUGGGUGUCACUAUGUU; listed as RNA, chemistry not given here)”, the “expression of AR full length” value in data set [7] is reported as “strong reduction”.
